pIC50: −log10 of the molar value.
Columns and labels:
HUVECs [1] = assay: Nicotine-induced tube formation of HUVECs; assay type: cell-based, human; conditions: nicotine 10 nM
Method: Serum-starved HUVECs were stimulated by nicotine (10 nM) in the presence or absence of voacangine. […] The basal level capillary tube formation (a) and invasiveness (b) of HUVECs that remained in serum-free media were normalized to 100%. Matrigel (10 mg/mL) was used to coat a 48-well plate and allowed to polymerize for 1 h at 37° C. HUVECs (6×10^4 cells) were seeded on the surface of the Matrigel, and then test compounds were added for 4-16 h at 37° C. in the presence or absence of VEGF (30 ng/mL). Morphological changes in the cells and formation of tubular structures were observed under a microscope (IX71, Olympus) and photographed at 100× magnification (DP70, Olympus).

HUVECs [2] = assay: Nicotine-induced endothelial cell invasion; assay type: cell-based, human; conditions: nicotine 10 nM
Method: Serum-starved HUVECs were stimulated by nicotine (10 nM) in the presence or absence of voacangine. […] The basal level capillary tube formation (a) and invasiveness (b) of HUVECs that remained in serum-free media were normalized to 100%. To examine the invasiveness of HUVECs in vitro, we used a Transwell chamber system with 8.0-μm pore polycarbonate filter inserts. Briefly, the lower side of the filter was coated with gelatin (10 μL, 1 mg/mL) and the upper side was coated with Matrigel (10 μL, 3 mg/mL). […] The chamber was incubated at 37° C. for 18 h, and then the cells were fixed with 70% methanol and stained with hematoxylin and eosin. The invasiveness of cells was measured by counting the number of whole cells in the lower side of the filter using a microscope at 100× magnification, and cells were photographed at 100× magnification.

HUVECs [3] = assay: MTT cell proliferation assay, HUVECs; assay type: cell-based, human
Method: (§1) Human umbilical vascular endothelial cells (HUVECs) were grown for 7-11 passages in EGM-2 medium supplemented with 10% FBS. HepG2 (human liver carcinoma) cells were grown in RPMI 1640 containing 10% FBS and 1% antibiotics. All cell lines were maintained at 37° C. in a humidified 5% CO2 incubator. Cell proliferation was measured using a 3-(4,5-dimethylthiazol-2-yl)-2,5-diphenyltetrazolium bromide (MTT) colorimetric assay, and cell viability was assessed using Trypan blue staining.

CHANG = assay: MTT cell proliferation assay, CHANG; assay type: cell-based; conditions: normal cells
HeLa = assay: MTT cell proliferation assay, HeLa; assay type: cell-based; conditions: Homo sapiens, cancer cells
HT1080 = assay: MTT cell proliferation assay, HT1080; assay type: cell-based; conditions: Homo sapiens, HT-1080; HT1080, cancer cells
HepG2 = assay: MTT cell proliferation assay, HepG2; assay type: cell-based; conditions: Homo sapiens; HepG2, cancer cells
Method: as §1

HUVECs [4] = assay: Capillary tube formation assay (VEGF-induced); assay type: cell-based, human; conditions: VEGF 30 ng/mL, serum-starved HUVECs
Method: Matrigel (10 mg/mL) was used to coat a 48-well plate and allowed to polymerize for 1 h at 37° C. HUVECs (6×10^4 cells) were seeded on the surface of the Matrigel, and then test compounds were added for 4-16 h at 37° C. in the presence or absence of VEGF (30 ng/mL). Morphological changes in the cells and formation of tubular structures were observed under a microscope (IX71, Olympus) and photographed at 100× magnification (DP70, Olympus).

HUVECs [5] = assay: Chemoinvasion assay (VEGF-induced); assay type: cell-based, human; conditions: VEGF 30 ng/mL, serum-starved HUVECs
Method: To examine the invasiveness of HUVECs in vitro, we used a Transwell chamber system with 8.0-μm pore polycarbonate filter inserts. Briefly, the lower side of the filter was coated with gelatin (10 μL, 1 mg/mL) and the upper side was coated with Matrigel (10 μL, 3 mg/mL). Test compounds were added to the lower chamber in the presence of VEGF (30 ng/mL), and HUVECs (7×10^5 cells) were placed in the upper chamber of the filter. The chamber was incubated at 37° C. for 18 h, and then the cells were fixed with 70% methanol and stained with hematoxylin and eosin. The invasiveness of cells was measured by counting the number of whole cells in the lower side of the filter using a microscope at 100× magnification, and cells were photographed at 100× magnification.

[6] = test system: chick embryo chorioallantoic membrane (CAM); assay: Chorioallantoic membrane (CAM) assay; assay type: in vivo, chicken
Method: The CAM assay was performed as described previously. Fertilized chicken eggs were kept in a humidified incubator at 37° C. for 3 days. Approximately 2-3 mL of egg albumin was removed with a hypodermic needle, allowing the CAM and yolk sac to drop away from the shell membrane. […] After further incubation for 2 days, 2-3 mL of Intralipose (Greencross Co, Suwon, Korea) was injected beneath the CAM and the membrane was observed under a microscope. Retinoic acid (RA) was used as a positive control.

HIF-1α = assay: Western blot of HIF-1α under hypoxic conditions; assay type: cell-based, human; conditions: HepG2 cells during hypoxia
Method: The cell lysates were separated by 10% SDS-PAGE, followed by transfer to PVDF membranes (Millipore, Bedford, Mass.) using standard electroblotting procedures. Blots were then blocked and immunolabeled overnight at 4° C. with primary antibodies, including anti-HIF-1α and anti-tubulin antibodies. Immunolabeling was detected by an enhanced chemiluminescence (ECL) kit (GE Healthcare, Buckinghamshire, UK) according to the manufacturer's instructions. For hypoxic conditions, cells were incubated at 5% CO2 with 1% O2 balanced with N2 in an anaerobic chamber (Forma).

VEGF = assay: Measurement of VEGF by ELISA; assay type: cell-based, human; conditions: HepG2 cells
Method: The VEGF concentration in media from voacangine-treated cells was determined using a VEGF Immunoassay kit (R&D Systems, Minneapolis, Minn.) according to the manufacturer's instructions. The results were expressed as concentration of VEGF relative to the total amount of VEGF from each well.

HUVECs [7] = assay: In vitro tumor cell-induced angiogenesis assay (combinated-chemoinvasion assay); assay type: cell-based, human; conditions: HepG2 in lower chamber, without VEGF
Method: To examine the invasive activity of […], a Transwell chamber system with 8.0-μm pore polycarbonate filter inserts was used. Briefly, the lower side of the filter was coated with gelatin (10 μL, 1 mg/mL) and the upper side was coated with Matrigel (10 μL, 3 mg/mL). Next, tumor cell HepG2 was added to the lower chamber. Test compounds were added to the lower chamber without VEGF and HUVECs (7×10^5 cells) were placed in the upper chamber of the filter. The chamber was incubated at 37° C. for 18 h, and then the cells were fixed with 70% methanol and stained with hematoxylin and eosin. Invasiveness was measured by counting the number of whole cells on the lower side of the filter using a microscope at 100× magnification, and cells were photographed at 100× magnification.

capsaicin contraction = conditions: literature [9]; cited from earlier work
HUVECs [8] = assay: Trypan blue cell viability; conditions: doses up to 20 μM for 3 days

## CN1CCCC1c1cccnc1 (stereo not drawn) [nicotine, reference compound]
HUVECs [1]; serum-starved HUVECs
  increase of angiogenesis (tube formation) activity: 2.5 fold
HUVECs [2]; serum-starved HUVECs
  increase of cell invasion activity: 2.0 fold

## CC[C@H]1C[C@@H]2CN3CCc4c([nH]c5ccc(OC)cc45)[C@](C(=O)OC)(C2)C13 [voacangine, 12-methoxyibogamine-18-carboxylic acid methyl ester]
HUVECs [3]; 10 μM, 3 days, MTT
  cell growth: inhibited cell growth
HUVECs [3]; Homo sapiens, HUVEC, HUVECs, normal cells
  pIC50: 4.74
HUVECs [3]; compared with other normal and cancer cell lines (Table 1)
  growth inhibition on HUVECs versus other cell lines: greater growth inhibition effect on HUVECs than on other normal and cancer cell lines
CHANG
  pIC50: 4.59
HeLa
  pIC50: 4.64
HT1080
  pIC50: 4.48
HepG2
  pIC50: 4.38
HUVECs [4]
  VEGF-induced tube formation: inhibited VEGF-induced tube formation in a dose-dependent manner
HUVECs [5]
  VEGF-induced invasiveness of HUVECs: inhibited the VEGF-induced enhanced invasiveness of HUVECs in a dose-dependent manner
[6]; 2 and 4 μg/egg, 2 days
  capillary formation during CAM development: dose-dependently inhibited capillary formation
[6]; 2 days treatment
  signs of thrombosis or hemorrhage in CAM: no apparent signs of thrombosis or hemorrhage
HIF-1α
  expression level of HIF-1α: dose-dependently reduced
HIF-1α; Western blot
  synthesis of cyclin D1 and tubulin: without inhibiting the synthesis of other proteins
VEGF
  hypoxia-induced expression of VEGF: inhibited the hypoxia-induced expression of VEGF
HUVECs [7]
  tumor cell-induced invasiveness of HUVECs by hypoxia: dose-dependently inhibited
HUVECs [1]
  nicotine-induced angiogenesis (tube formation): inhibit nicotine-induced angiogenesis
HUVECs [2]
  nicotine-induced invasion of HUVECs: inhibit nicotine-induced angiogenesis and invasion of HUVECs in a dose-dependent manner
Capsaicin contraction
  capsaicin contraction: inhibit capsaicin contraction in a dose-dependent manner
HUVECs [8]
  cytotoxicity on HUVECs (trypan blue exclusion): no cytotoxicity

Reference: patent US10478440B2, “Pharmaceutical compositions for inhibiting angiogenesis comprising plant-derived natural compound” (INDUSTRY-ACADEMIC COOPERATION FOUNDATION, YONSEI UNIVERSITY, priority 2011, dated 2019)
